Test results taken from patent US20090226536A1, “METHODS AND MATERIALS RELATING TO ENHANCED PRODUCTION OF DOPAMINE NEURONS” (priority 2004, published 2009).

Assays:
[1] = test system: rat VM E14.5 precursor cultures; assay: TH immunostaining, number of TH+ cells in VM precursor cultures; assay type: cell-based; details: for dose of maximal effect / optimal dose to increase TH+ cell numbers: dose-response in E14.5 VM precursors; for increase in the number of TH positive cells (maximal effect): rat VM E14.5 precursor cultures, three days in vitro, at 3-5 μM I3M, 15 μM KP
Experimental: (§1) E14.5 VMs obtained from time-mated Sprague-Dawley rats (ethical approval for animal experimentation was granted by Stockholms Norra Djurförsöks Etiska Nämnd) were dissected, mechanically dissociated, and plated at a final density of 1×10^5 cells per cm2 on poly-D-lysine coated plates (Falcon) in serum-free N2 medium, consisting of a 1:1 mixture of F12 and MEM (Invitrogen) with 5 μg/ml insulin, 100 μg/ml transferrin, 100 μM putrescine, 20 nM progesterone, 30 nM selenium, 6 mg/ml glucose and 1 mg/ml BSA (all purchased from Sigma). Cultures were kept three days in vitro, in a 37° C. incubator, at 5% CO2, before fixation. MN9D and SN4741 cells were grown as described in Choi et al., 1991 and Son et al., 1999. MN9D cultures were fixed after four days in vitro. I3M and KP (Alexis Biochemicals, Göteborg, Sweden) were diluted in DMSO and added to the cultures at the time of plating. […] 10 μM BrdU was added to the culture media 6 hours prior to fixation.
(§2) Cells were fixed in ice-cold 4% paraformaldehyde for 20 minutes and washed in PBS. For a detailed protocol of immunocytochemistry, see Castelo-Branco et al., 2003 (7). The following primary and secondary antibodies were used: mouse α-TH (1:1000 dilution—Immunostar), rabbit α-TH (1:250-Pelfreeze), mouse α-β-III-tubulin (1:1000-Promega), rabbit α.Nurr1 (1:1000-Santa Cruz), mouse α-MAP2 (1:200—Sigma), rabbit A-GFAP (1:400-Dako), mouse α.active-caspase III (1:100-Cell Signaling), mouse α-BrdU (1:100-Dako) and rat α.BrdU (1:100-Abcam), biotinylated 1:500, Cyanine-2 or rhodamine-coupled horse-α-mouse IgG 1:200 or goat α-rabbit IgG 1:200, from Vector and Jackson Laboratories). At the end of the staining procedure, the cultures were incubated with Hoechst 33258 reagent for 10 minutes. BrdU immunocytochemistry included an incubation for 30 minutes with 2NHCL. Images were acquired from stained cells in PBS at room temperature with a Zeiss Axioplan 100M microscope (LD Achrostigmat 20×, 0.3 PH1. 0-2 and LD Achroplan 40×, 0.60 Korr PH2. 0-2) and collected with a Hamamatsu camera C4742-95 (with QED imaging software).
(§3) Quantitative immunocytochemical data represent the means±standard errors of counts from ten non-overlapping fields, in three wells per condition from three to five separate experiments. For the RT-PCR experiments, five separate experiments were analysed and for the GSK-3β inhibitors dose response, two sets of experiments were analysed. Statistical analysis was performed in Prism 4 (GraphPad software, San Diego, USA) as described in the figure legends, with […] significance for all tests assumed at the level of p<0.05 (*p<0.05; **0.01<p<0.001; ***p<0.001). Statistical tests were chosen according to the distribution of the sample population.

GSK-3β = target: T1, GSK-3β (Mus musculus, UniProt Q9WV60); assay: Immunoblotting of GSK-3β protein levels in SN4741 cells; assay type: cell-based; details: 15 μM KP and 5 μM I3M for 24 hours
T1 construct: treatment of a DA precursor cell line derived from the substantia nigra, SN4741 (21) with KP or I3M led to a downregulation of GSK-3β protein levels; endogenous in cells; host or cells: SN4741 cells
T1 sequence (Q9WV60 whole entry): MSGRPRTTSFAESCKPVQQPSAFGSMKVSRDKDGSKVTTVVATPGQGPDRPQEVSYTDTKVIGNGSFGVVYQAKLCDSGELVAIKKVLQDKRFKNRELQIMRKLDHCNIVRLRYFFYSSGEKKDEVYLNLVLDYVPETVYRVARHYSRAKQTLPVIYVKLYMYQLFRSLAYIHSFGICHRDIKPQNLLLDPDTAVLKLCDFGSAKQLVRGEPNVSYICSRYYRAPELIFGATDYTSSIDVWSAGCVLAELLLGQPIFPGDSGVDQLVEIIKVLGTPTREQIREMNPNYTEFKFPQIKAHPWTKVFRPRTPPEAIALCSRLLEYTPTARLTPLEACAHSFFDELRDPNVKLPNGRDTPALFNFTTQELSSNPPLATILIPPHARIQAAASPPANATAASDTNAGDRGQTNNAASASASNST
Experimental: as §1
(§4) Cell were lysed for 15 min in a modified RIPA buffer containing 20 mM Tris (pH 7.5), 140 mM NaCl, 10% glycerol, 1% IGEPAL, 1 mM β-glycerol-phosphate, 1 mM Na3VO4 and complete protease inhibitors (Roche). Plates were scraped and the cell lysate was centrifuged in a microfuge for 5 min. […] Equal amounts of protein were analysed by polyacrylamide gel electrophoresis (10% polyacrylamide). […]

VM precursors = assay: Immunostaining for neuronal and glial differentiation (GFAP, TuJ1, MAP2, TH) of VM precursors; assay type: cell-based, rat; details: three days, 15 μM KP and 5 μM I3M
Experimental: as §1, §2, §3

VM precursor cultures = assay: Total cell number, proliferation (BrdU) and active Caspase 3 in VM precursor cultures; assay type: cell-based, rat; details: for active Caspase 3 immunostaining: VM precursor cultures; for active Caspase 3 immunostaining / proliferation (BrdU incorporation): 15 μM KP, 5 μM I3M; for proliferation (BrdU incorporation): VM precursors, 6 h BrdU pulse; for total number of VM cells (Hoechst 33258 staining): after 3 days in culture, 15 μM KP and 5 μM I3M
Experimental: as §1, §2, §3

β-catenin = assay: Immunoblotting of β-catenin protein in VM precursors; assay type: cell-based, rat; details: 15 μM KP or 5 μM I3M for 24 hours
Experimental: as §1, §4

TH = assay: Immunoblotting of TH protein in VM precursors; assay type: cell-based, rat; details: 15 μM KP or 5 μM I3M for 24 hours
Experimental: as §1, §4

GSK-3β and CDKs = details: at 3-5 μM I3M and 15 μM KP; refs (20, 13); cited from earlier work
MN9D cells = assay: MN9D cell number, proliferation and morphological differentiation; assay type: cell-based
Experimental: as §1, §2

c-ret mRNA = assay: Real time RT-PCR of c-ret mRNA in VM precursor cultures; assay type: cell-based, rat; details: 15 μM KP, three days in vitro
Excerpt: Total RNA was isolated from E14.5 VM precursor cultures (2.5×10^6 cells in 6 cm2 dishes) treated with the GSK-3β inhibitors for three days in vitro. For a description of reverse transcription reaction, real-time RT-PCR and c-ret primer sequences, see Castelo-Branco et al., 2003 (7). Quantum RNA classical 18S internal standard was purchased from Ambion (Austin, USA) and PCR primers from DNA Technology A/S, Aarhus, Denmark. The following PCR programme was used for SYBR Green detection on the ABI PRISM 5700 Detection System (PE AppliedBiosystems, Foster City, Calif., USA): 94° C. for 2 min, 35-40 cycles of 94° C. for 30 s, 59° C. for 30s, 72° C. for 15s and 80° C. for 5s. Statistical analysis of the results was performed by a 2-tailed Wilcoxon signed rank test. Significance for all tests was assumed at the level of p<0.05 (*p<0.05; **0.01<p<0.001; ***p<0.001).

VM Nurr1+ precursors = assay: TH/Nurr1 double immunostaining, conversion of Nurr1+ precursors into TH+ neurons; assay type: cell-based, rat; details: three days after treatment with 15 μM KP
Experimental: as §1
Cells were fixed in ice-cold 4% paraformaldehyde for 20 minutes and washed in PBS. […]
Quantitative immunocytochemical data represent the means±standard errors of counts from ten non-overlapping fields, in three wells per condition from three to five separate experiments. For the RT-PCR experiments, five separate experiments were analysed and for the GSK-3β inhibitors dose response, two sets of experiments were analysed. […]

[2] = MN9D cells, 15 μM KP for four days

SMILES | dose of maximal effect / optimal dose to increase TH+ cell numbers [1] | increase in the number of TH positive cells (maximal effect) [1] | GSK-3β protein levels (GSK-3β) | immature neurons (TuJ1 positive cells/Hoechst 33258) (VM precursors) | number of mature neurons (MAP2 positive cells/Hoechst 33258) (VM precursors) | proportion of TH+ DA neurons (TH+/TuJ1+ cells) (VM precursors) | total number of astrocytes (GFAP positive cells/Hoechst 33258) (VM precursors) | active Caspase 3 immunostaining (VM precursor cultures) | proliferation (BrdU incorporation) (VM precursor cultures) | total number of VM cells (Hoechst 33258 staining) (VM precursor cultures) | β-catenin protein levels (β-catenin) | TH protein levels (TH) | kinase selectivity at the concentrations used (GSK-3β and CDKs) | morphological differentiation of MN9D cells (MN9D cells; 15 μM KP for four days) | neurite extension of MN9D cells (MN9D cells; KP treatment) | proliferation (BrdU incorporation) (MN9D cells; [2]) | total number of cells (Hoechst 33258) (MN9D cells; [2]) | c-ret mRNA levels (c-ret mRNA) | increase in the number of TH/Nurr1 double positive cells (VM Nurr1+ precursors)
O=C1Nc2ccccc2/C1=C1/Nc2ccccc2/C1=N\O [I3M, Indirubin-3-monoxime] | 3 to 5 µM | five | decreases | increased | increase | marked increase | increased | reduced | significantly decreased | did not change | increased | increased | inhibits both GSK-3β and CDKs | – | – | – | – | – | –
O=C1Cc2c([nH]c3ccc(Br)cc23)-c2ccccc2N1 [KP, Kenpaullone] | 15 µM | three | decreases | increased | increase | marked increase | increased | not modified | not affected | did not change | increased | increased | GSK-3β selective inhibitor | induced morphological differentiation | increase | did not alter | did not alter | upregulated | 2.5 fold
